Data on 5 compounds can be found in ChEMBL document CHEMBL1150449, “Conversion of acyclic nonpeptide CCK antagonists into CCK agonists” (Bioorg Med Chem Lett, 1997).

Experiment [1] concerns the target T1, Cholecystokinin receptor type A (Homo sapiens, UniProt P32238).
T1 sequence (P32238 whole entry): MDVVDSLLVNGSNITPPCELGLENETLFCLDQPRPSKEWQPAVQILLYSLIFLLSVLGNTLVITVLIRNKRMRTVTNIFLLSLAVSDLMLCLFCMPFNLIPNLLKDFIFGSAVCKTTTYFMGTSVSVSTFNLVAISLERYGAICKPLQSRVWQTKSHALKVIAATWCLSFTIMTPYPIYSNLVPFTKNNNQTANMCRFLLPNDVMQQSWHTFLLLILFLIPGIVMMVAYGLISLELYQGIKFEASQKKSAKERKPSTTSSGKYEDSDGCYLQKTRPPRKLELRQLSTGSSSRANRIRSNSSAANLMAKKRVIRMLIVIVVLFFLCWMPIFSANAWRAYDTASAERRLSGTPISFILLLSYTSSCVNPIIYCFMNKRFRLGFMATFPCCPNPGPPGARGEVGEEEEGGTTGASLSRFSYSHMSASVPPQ
In words: Tested for the 50% displacement of [125I]CCK-8 from membrane preparation isolated from CHO-K1 cells stably transfected with the cDNA of human Cholecystokinin type A receptor. Format: cell membranes. A general note: Loss of bound radioactivity is the signal in a displacement assay; it reports binding, not function.

The target in experiment [2] is T2, Gastrin/cholecystokinin type B receptor (Homo sapiens, UniProt P32239).
T2 sequence (P32239 whole entry): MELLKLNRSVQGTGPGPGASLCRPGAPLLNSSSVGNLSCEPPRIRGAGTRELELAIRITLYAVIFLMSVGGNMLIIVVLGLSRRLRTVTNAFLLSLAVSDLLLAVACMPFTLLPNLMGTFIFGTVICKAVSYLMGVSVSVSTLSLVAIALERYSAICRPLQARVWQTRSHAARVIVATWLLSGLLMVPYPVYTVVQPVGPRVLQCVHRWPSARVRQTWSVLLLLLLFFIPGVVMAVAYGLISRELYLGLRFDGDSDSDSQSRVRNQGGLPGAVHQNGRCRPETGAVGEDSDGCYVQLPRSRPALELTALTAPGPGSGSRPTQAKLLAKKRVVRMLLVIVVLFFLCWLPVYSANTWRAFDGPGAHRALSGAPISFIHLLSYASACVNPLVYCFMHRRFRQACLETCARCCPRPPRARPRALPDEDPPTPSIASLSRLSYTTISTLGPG
The experiment is described as follows: Tested for 50% displacement of [125I]CCK-8 from membrane preparation isolated from CHO-K1 cells stably transfected with the cDNA of human Cholecystokinin type B receptor. Format: cell membranes.

For a further experiment, the system named is Mus musculus. In words: Tested in vivo for the relative efficacy (relative to CCK-8 (1 nmol/kg)) for mouse gallbladder emptying after ip administration (0.1 umol/kg). Type of experiment: functional.
Experiment [3] concerns the target Cholecystokinin receptor type A (Cavia porcellus). In words: Concentration of compound that induced 50% of the maximal contraction in guinea pig gallbladder tissue when tested in vitro.

As usually defined, the IC50 is the point on the concentration scale where inhibition reaches its midpoint. A word on the EC50: it is the concentration that produces a half-maximal response. The low end stands for a more potent agent, the high end for a less potent agent. As for `CC(C)N(C(=O)CN(C(=O)[C@@H](CCC(=O)O)NC(=O)Nc1ccccc1)c1ccccc1)c1ccccc1`, the IC50 in experiment [1] is 1580 nM; in experiment [2], 10000 nM. In addition, in the experiment on Mus musculus, the Relative efficacy came to 0.6. This compound returned an EC50 in experiment [3] of 210 nM.
For `COc1ccc(N(C(=O)CN(C(=O)[C@H](CCC(=O)O)NC(=O)Nc2ccccc2)c2ccccc2)C(C)C)cc1`, the EC50 in experiment [3] is 5600 nM.
Consider `COc1ccc(N(C(=O)CN(C(=O)[C@@H](CCC(=O)O)NC(=O)Nc2ccccc2)c2ccccc2)C(C)C)cc1`, for which the results for the IC50 in experiment [1] and in experiment [2] were 251 nM and 31600 nM, respectively. The same compound returned a Relative efficacy in the experiment with Mus musculus of 0.8. In experiment [3], this compound yielded an EC50 of 110 nM.
`CC(C)N(C(=O)CN(C(=O)CNC(=O)Nc1ccccc1)c1ccccc1)c1ccccc1`: the IC50 in experiment [1] was 3160 nM; in experiment [2], 1580 nM. Besides, the Relative efficacy with Mus musculus is reported as less than 0.2. Besides, the EC50 in experiment [3] turned out to be 300 nM.
Take `CCCCCN(CC(=O)N(c1ccccc1)C(C)C)C(=O)[C@@H](CCC(=O)O)NC(=O)Nc1ccccc1`: the Relative efficacy in the experiment with Mus musculus is 0.3.
